Source: publication PMC9578396, “Intrinsic Antibacterial Activity of Xeruborbactam In Vitro: Assessing Spectrum and Mode of Action” (Antimicrobial Agents and Chemotherapy, 2022)
“And” between values parts separate entries of the source, which are not always exact repeats. Equal entries are not always repeated. Where two headings read alike, the source gives them in different places.

Assays:
Pseudomonas aeruginosa = experiment: Broth microdilution MIC (CLSI), Pseudomonas aeruginosa; assay type: cell-based; details: for MIC50 / MIC90: 506 isolates
Procedure, shortened: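 Test organisms were KPC-producing clinical isolates (some enriched for porin mutations), matched isolates that lost KPC plasmids, and engineered porin/efflux mutant strains. Susceptibility was measured by broth microdilution following CLSI methods, using panels prepared in-house.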

PBP2 = PBP2 (Klebsiella pneumoniae, UniProt A6T696); experiment: Gel-based Bocillin FL competition PBP binding assay
Procedure: (§1) Ten milliliters of overnight bacterial culture was inoculated in 1 L of LB medium and grown to an OD600 of 0.7 to 0.9. The cell pellet was washed once with 50 mL of solution containing 100 mM Na-phosphate at pH 7.0 and 100 mM NaCl and resuspended in 10 mL of the same buffer with one tablet of EDTA-free mini-protease inhibitor and 10 mg of lysozyme. Cell suspensions were incubated for 45 min at 37°C, and then 200 μL of DNase I was added along with MgSO4 (to a final concentration of 10 mM), followed by three cycles of freeze-thawing (10 min and 20 min, respectively). Four cycles of sonication at maximum power were performed next, each cycle lasting for 30 s with 1 min on ice between cycles. The cell suspension was centrifuged at 12,000 × g for 10 min at 4°C. The supernatant was collected and centrifuged at 100,000 × g for 45 min at 4°C. The pellet was washed three times with 10 mL of 100 mM Na-phosphate, pH 7.0, by resuspension and subsequent centrifugation at 100,000 × g for 10 min at 4°C. The pellet was finally resuspended in 1.5 mL of 100 mM Na-phosphate, pH 7.0, and passed several times through a Dounce homogenizer (tight pestle). Membrane preparations were aliquoted and kept at −80°C.
(§2) Five microliters of total bacterial membrane preparation was mixed with 5 μL of a test compound at a desired concentration in 100 mM Na-phosphate buffer, pH 7.0. Incubation of bacterial membrane preparations with control beta-lactams was performed for 10 min at 30°C; xeruborbactam was incubated with membrane preparations for 1 h at 30°C. Five microliters of 150 μM Bocillin FL fluorescent probe (Thermo Fisher Scientific) was added, and the reaction mixture was incubated for an additional 10 min at 30°C in the case of beta-lactams or for 20 min on ice (0°C) in the case of xeruborbactam. We believe that the 0°C temperature is required to prevent displacement of xeruborbactam from its complex by the Bocillin probe. At the end of the incubation step, 15 μL of 2× SDS sample loading buffer was added, and the reaction mixture was incubated for 5 min at 95°C. Twenty-five microliters of the reaction mixture was then loaded on an 8% SDS Tris-glycine gel (Thermo Fisher Scientific). At the end of the run, the gel was briefly rinsed with water and fixed in 10% acetic acid, 40% methanol for 20 min. After an additional wash in water for 30 min, the gel was scanned on a Typhoon Trio+ Imager using a blue laser filter (excitation, 488 nm, and emission, 520 nm). Densitometry of the gel images was performed using ImageQuant software (Molecular Dynamics). IC50 values were calculated with Prism software (GraphPad).

PBP1b = biological target: T1, PBP1b (Escherichia coli, UniProt P02919); experiment: as above
T1 construct: endogenous in cells; host or cells: Escherichia coli ECM5497 (MG1655), total membrane preparation
Procedure: as §1, §2

PBP3 [1] = biological target: PBP3 (Klebsiella pneumoniae, UniProt A0A0H3GN85); experiment: as above
Procedure: as §1, §2

PBP3 [2] = biological target: PBP3 (Acinetobacter baumannii, UniProt A0ABX6CK25); experiment: as above
Procedure: as §1, §2

PBP1a [3] = biological target: PBP1a (Klebsiella pneumoniae, UniProt A0A0H3GZF1); experiment: as above
Procedure: as §1, §2

PBP1a [4] = biological target: T2, PBP1a (Escherichia coli, UniProt P02918); experiment: as above
T2 construct: endogenous in cells; host or cells: Escherichia coli ECM5497 (MG1655), total membrane preparation
Procedure: as §1, §2

PBP1a [5] = biological target: PBP1a (Acinetobacter baumannii, UniProt A0ABX6CK30); experiment: as above
Procedure: as §1, §2

[6] = Pseudomonas aeruginosa, strain PAM1032, nalB (MexAB-OprM overexpression)
[7] = Pseudomonas aeruginosa, strain PAM1033, nfxB (MexCD-OprJ overexpression)
[8] = Pseudomonas aeruginosa, strain PAM1034, nfxC (MexEF-OprN overexpression)
[9] = Pseudomonas aeruginosa, strain PAM1106, mexA::Tet
[10] = Pseudomonas aeruginosa, strain PAM1154, oprM::Hg

T2 sequence (P02918 whole entry): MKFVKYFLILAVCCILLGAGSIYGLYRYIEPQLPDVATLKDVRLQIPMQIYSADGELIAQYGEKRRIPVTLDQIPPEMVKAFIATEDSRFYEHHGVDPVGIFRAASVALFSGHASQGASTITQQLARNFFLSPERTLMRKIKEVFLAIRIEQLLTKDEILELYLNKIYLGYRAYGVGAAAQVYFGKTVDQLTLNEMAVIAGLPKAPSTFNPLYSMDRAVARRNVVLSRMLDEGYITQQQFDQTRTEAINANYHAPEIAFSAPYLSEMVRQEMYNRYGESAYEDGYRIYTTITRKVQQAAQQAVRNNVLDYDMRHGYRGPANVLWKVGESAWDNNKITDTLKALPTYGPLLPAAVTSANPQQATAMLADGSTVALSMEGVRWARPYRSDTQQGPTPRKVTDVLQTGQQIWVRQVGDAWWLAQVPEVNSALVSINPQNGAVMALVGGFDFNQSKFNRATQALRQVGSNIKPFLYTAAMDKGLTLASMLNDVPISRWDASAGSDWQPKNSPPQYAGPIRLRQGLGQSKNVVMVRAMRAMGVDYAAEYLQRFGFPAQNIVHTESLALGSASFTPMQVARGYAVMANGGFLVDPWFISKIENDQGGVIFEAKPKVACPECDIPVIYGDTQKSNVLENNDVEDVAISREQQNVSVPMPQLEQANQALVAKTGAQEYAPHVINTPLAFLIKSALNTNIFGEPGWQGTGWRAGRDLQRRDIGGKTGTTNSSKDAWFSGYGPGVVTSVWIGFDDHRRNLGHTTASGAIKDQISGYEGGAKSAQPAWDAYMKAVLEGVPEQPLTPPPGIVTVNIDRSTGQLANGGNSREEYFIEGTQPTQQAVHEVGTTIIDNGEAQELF
Sequence of PBP3 (Acinetobacter baumannii, UniProt A0ABX6CK25) (A0ABX6CK25 entry or part of it): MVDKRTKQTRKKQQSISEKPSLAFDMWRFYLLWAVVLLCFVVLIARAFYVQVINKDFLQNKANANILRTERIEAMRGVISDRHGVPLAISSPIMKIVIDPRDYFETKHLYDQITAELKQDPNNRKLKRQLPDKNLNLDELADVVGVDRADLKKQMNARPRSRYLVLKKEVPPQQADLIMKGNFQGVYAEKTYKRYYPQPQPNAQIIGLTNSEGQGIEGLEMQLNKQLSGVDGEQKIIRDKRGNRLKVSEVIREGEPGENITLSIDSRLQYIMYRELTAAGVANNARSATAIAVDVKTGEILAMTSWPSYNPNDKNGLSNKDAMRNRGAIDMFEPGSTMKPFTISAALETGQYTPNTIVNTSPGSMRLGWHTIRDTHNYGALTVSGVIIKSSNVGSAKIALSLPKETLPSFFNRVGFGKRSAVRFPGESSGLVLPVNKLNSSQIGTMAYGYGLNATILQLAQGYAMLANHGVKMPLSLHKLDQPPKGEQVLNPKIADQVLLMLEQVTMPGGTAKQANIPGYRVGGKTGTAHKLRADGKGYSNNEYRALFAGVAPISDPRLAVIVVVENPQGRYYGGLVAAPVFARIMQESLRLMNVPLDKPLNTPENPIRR
Sequence of PBP3 (Klebsiella pneumoniae, UniProt A0A0H3GN85) (A0A0H3GN85 entry or part of it): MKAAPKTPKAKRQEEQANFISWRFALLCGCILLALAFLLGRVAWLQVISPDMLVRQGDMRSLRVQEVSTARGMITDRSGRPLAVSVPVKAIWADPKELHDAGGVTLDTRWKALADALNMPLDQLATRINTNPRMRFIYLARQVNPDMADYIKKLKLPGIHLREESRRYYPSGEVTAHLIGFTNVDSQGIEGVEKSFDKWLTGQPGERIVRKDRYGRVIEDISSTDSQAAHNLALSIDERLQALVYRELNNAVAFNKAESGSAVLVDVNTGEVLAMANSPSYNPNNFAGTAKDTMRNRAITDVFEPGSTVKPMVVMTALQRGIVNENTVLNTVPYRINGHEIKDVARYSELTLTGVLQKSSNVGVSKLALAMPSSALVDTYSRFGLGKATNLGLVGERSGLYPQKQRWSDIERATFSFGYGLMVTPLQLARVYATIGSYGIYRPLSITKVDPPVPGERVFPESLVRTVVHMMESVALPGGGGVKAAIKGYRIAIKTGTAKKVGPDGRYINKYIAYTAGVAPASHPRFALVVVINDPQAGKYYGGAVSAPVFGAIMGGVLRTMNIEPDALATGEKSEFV
Sequence of PBP1a (Acinetobacter baumannii, UniProt A0ABX6CK30) (A0ABX6CK30 entry or part of it): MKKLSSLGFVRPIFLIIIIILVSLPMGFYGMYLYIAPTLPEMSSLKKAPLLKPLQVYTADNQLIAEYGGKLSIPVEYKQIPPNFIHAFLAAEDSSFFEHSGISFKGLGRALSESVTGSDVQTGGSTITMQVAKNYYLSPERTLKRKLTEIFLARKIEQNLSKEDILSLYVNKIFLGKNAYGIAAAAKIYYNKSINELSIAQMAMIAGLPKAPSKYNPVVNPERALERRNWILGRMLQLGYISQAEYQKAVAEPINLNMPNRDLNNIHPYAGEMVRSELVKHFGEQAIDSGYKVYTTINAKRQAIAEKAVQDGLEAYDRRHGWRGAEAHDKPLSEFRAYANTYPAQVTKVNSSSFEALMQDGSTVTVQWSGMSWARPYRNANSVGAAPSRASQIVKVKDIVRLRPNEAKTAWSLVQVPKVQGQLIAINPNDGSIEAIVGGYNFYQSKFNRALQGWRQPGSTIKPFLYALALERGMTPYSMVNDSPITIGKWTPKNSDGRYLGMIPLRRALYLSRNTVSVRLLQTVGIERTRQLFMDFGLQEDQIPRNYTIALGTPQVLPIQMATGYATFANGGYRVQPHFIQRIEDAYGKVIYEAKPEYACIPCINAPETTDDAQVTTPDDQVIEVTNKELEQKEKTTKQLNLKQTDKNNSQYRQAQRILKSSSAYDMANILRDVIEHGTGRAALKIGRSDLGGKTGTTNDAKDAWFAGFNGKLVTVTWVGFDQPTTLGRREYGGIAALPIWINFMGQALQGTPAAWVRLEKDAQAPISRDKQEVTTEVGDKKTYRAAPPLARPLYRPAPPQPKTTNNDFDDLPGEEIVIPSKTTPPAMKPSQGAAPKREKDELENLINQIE
Sequence of PBP2 (A6T696 entry or part of it): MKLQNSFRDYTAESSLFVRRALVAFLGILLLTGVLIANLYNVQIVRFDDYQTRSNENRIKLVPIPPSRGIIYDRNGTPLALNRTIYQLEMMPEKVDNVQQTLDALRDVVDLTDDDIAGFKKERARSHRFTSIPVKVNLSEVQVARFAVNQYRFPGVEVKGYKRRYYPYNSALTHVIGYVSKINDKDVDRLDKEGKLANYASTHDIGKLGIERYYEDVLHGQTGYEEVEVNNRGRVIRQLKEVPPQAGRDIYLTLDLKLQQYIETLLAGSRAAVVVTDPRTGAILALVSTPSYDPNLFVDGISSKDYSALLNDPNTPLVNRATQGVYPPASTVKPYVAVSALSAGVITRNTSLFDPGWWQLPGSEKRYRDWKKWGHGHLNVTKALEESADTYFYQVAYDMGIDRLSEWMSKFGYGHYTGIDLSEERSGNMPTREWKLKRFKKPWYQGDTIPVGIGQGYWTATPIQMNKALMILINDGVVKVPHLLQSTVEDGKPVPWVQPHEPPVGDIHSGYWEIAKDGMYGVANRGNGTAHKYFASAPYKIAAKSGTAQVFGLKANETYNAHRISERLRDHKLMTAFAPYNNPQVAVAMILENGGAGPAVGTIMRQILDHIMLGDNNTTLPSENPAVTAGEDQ
T1 sequence (P02919 whole entry): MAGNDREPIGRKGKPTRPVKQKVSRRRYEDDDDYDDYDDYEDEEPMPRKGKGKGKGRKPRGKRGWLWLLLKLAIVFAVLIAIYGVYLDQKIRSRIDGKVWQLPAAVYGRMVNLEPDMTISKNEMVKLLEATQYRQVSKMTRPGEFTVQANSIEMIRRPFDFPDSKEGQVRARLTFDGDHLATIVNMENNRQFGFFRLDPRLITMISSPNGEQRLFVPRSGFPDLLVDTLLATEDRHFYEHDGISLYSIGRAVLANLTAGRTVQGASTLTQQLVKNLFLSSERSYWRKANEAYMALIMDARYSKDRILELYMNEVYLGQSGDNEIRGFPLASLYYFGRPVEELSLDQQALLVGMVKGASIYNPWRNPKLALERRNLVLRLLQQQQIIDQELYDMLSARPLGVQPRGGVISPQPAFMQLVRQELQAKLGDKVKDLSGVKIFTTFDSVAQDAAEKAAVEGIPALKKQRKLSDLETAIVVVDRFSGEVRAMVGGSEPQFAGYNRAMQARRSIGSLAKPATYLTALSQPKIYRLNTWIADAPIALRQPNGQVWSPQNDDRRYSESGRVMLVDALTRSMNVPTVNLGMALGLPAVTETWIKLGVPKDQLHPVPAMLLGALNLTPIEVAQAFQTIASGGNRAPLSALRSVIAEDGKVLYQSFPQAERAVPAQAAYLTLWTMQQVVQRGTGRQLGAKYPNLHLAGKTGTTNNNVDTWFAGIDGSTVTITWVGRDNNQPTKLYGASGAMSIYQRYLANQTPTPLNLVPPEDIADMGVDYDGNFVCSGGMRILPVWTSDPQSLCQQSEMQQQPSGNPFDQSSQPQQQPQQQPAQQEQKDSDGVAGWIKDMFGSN

## C[C@@H](O)[C@H]1C(=O)N2C(C(=O)O)=C(S[C@@H]3CN[C@H](C(=O)N(C)C)C3)[C@H](C)[C@H]12 [Meropenem]
Pseudomonas aeruginosa; PAM1154 (oprM::Hg), xeruborbactam 0 µg/ml
  MIC: 0.5 µg/mL
Pseudomonas aeruginosa; Pseudomonas aeruginosa
  MIC: 0.25 µg/mL
Pseudomonas aeruginosa; Pseudomonas aeruginosa, PAO1
  MIC: 0.06 µg/mL and 0.16 µM
Pseudomonas aeruginosa; [6]
  MIC: 1 µg/mL
Pseudomonas aeruginosa; [7]
  MIC: 0.25 µg/mL
Pseudomonas aeruginosa; [8]
  MIC: 0.5 µg/mL
Pseudomonas aeruginosa; [9]
  MIC: 0.06 µg/mL
Pseudomonas aeruginosa; [10]
  MIC: 0.06 µg/mL
PBP2
  IC50: 0.003 µM
PBP1b
  IC50: 21.1 µM
PBP3 [1]; read-out: Relative binding IC50, PBP3; K. pneumoniae KPM1001 membranes; Bocillin FL step 0°C for xeruborbactam, 30°C for beta-lactams
  IC50: 0.24 µM
PBP3 [2]; read-out: Relative binding IC50, PBP3; A. baumannii ACM1320 membranes; Bocillin FL step 0°C for xeruborbactam, 30°C for beta-lactams
  IC50: 0.19 µM
PBP1a [3]; read-out: Relative binding IC50, PBP1a; K. pneumoniae KPM1001 membranes; Bocillin FL step 0°C for xeruborbactam, 30°C for beta-lactams
  IC50: 6.6 µM
PBP1a [4]
  IC50: 5.4 µM
PBP1a [5]; read-out: Relative binding IC50, PBP1a; A. baumannii ACM1320 membranes; Bocillin FL step 0°C for xeruborbactam, 30°C for beta-lactams
  IC50: 0.07 µM

## O=C(O)c1c(F)ccc2c1OB(O)[C@@H]1C[C@H]21 [Xeruborbactam]
Pseudomonas aeruginosa; 506 P. aeruginosa clinical isolates
  isolates with MICs of ≥64 μg/mL: 94%
Pseudomonas aeruginosa; Pseudomonas aeruginosa
  MIC50: >64 µg/mL
  MIC90: >64 µg/mL
Pseudomonas aeruginosa; Pseudomonas aeruginosa, read-out: MIC50
  MIC50: > 64 µg/mL
Pseudomonas aeruginosa; Pseudomonas aeruginosa, read-out: MIC90
  MIC90: > 64 µg/mL
Pseudomonas aeruginosa; Pseudomonas aeruginosa, PAM1154 (oprM::Hg), xeruborbactam 0 µg/ml
  MIC: 16 µg/mL
Pseudomonas aeruginosa; Pseudomonas aeruginosa, PAO1, Pseudomonas aeruginosa PAM3034 (PAO1), read-out: MIC
  MIC: 16 µg/mL and 72 µM
Pseudomonas aeruginosa; Pseudomonas aeruginosa, after inactivation of MexAB-OprM, read-out: MIC
  MIC: 16 µg/mL
Pseudomonas aeruginosa; Pseudomonas aeruginosa, before inactivation of MexAB-OprM (wild type), read-out: MIC
  MIC: 256 µg/mL
Pseudomonas aeruginosa; Pseudomonas aeruginosa, strain 1089003, alone, read-out: MIC
  MIC: 16 µg/mL
Pseudomonas aeruginosa; Pseudomonas aeruginosa, strain 1097436, alone, read-out: MIC
  MIC: 8 µg/mL
Pseudomonas aeruginosa; Pseudomonas aeruginosa, strain 1098084, alone, read-out: MIC
  MIC: 16 µg/mL
Pseudomonas aeruginosa; Pseudomonas aeruginosa, strain 1098916, alone, read-out: MIC
  MIC: 32 µg/mL
Pseudomonas aeruginosa; Pseudomonas aeruginosa, strain 1100407, alone, read-out: MIC
  MIC: 32 µg/mL
Pseudomonas aeruginosa; Pseudomonas aeruginosa, strain 1104100, alone, read-out: MIC
  MIC: 16 µg/mL
Pseudomonas aeruginosa; Pseudomonas aeruginosa, strain 1104168, alone, read-out: MIC
  MIC: 32 µg/mL
Pseudomonas aeruginosa; Pseudomonas aeruginosa, strain 1104284, alone, read-out: MIC
  MIC: 8 µg/mL
Pseudomonas aeruginosa; Pseudomonas aeruginosa, strain 1106973, alone, read-out: MIC
  MIC: 16 µg/mL
Pseudomonas aeruginosa; Pseudomonas aeruginosa, strain 1108885, alone, read-out: MIC
  MIC: 16 µg/mL
Pseudomonas aeruginosa; Pseudomonas aeruginosa, strain 1109744, alone, read-out: MIC
  MIC: 16 µg/mL
Pseudomonas aeruginosa; Pseudomonas aeruginosa, strain 1113238, alone, read-out: MIC
  MIC: 8 µg/mL
Pseudomonas aeruginosa; Pseudomonas aeruginosa, strain 1113634, alone, read-out: MIC
  MIC: 8 µg/mL
Pseudomonas aeruginosa; Pseudomonas aeruginosa, strain 1114012, alone, read-out: MIC
  MIC: 8 µg/mL
Pseudomonas aeruginosa; Pseudomonas aeruginosa, strain 1116835, alone, read-out: MIC
  MIC: 8 µg/mL
Pseudomonas aeruginosa; Pseudomonas aeruginosa, strain 1116849, alone, read-out: MIC
  MIC: 16 µg/mL
Pseudomonas aeruginosa; Pseudomonas aeruginosa, strain 1118234, alone, read-out: MIC
  MIC: 16 µg/mL
Pseudomonas aeruginosa; Pseudomonas aeruginosa, strain 1119418, alone, read-out: MIC
  MIC: 8 µg/mL
Pseudomonas aeruginosa; Pseudomonas aeruginosa, strain 1124145, alone, read-out: MIC
  MIC: 16 µg/mL
Pseudomonas aeruginosa; Pseudomonas aeruginosa, strain 1125954, alone, read-out: MIC
  MIC: 32 µg/mL
Pseudomonas aeruginosa; Pseudomonas aeruginosa, strain 1125996, alone, read-out: MIC
  MIC: 32 µg/mL
Pseudomonas aeruginosa; Pseudomonas aeruginosa, strain 1126521, alone, read-out: MIC
  MIC: 8 µg/mL
Pseudomonas aeruginosa; Pseudomonas aeruginosa, strain 1126957, alone, read-out: MIC
  MIC: 8 µg/mL
Pseudomonas aeruginosa; Pseudomonas aeruginosa, strain 1126982, alone, read-out: MIC
  MIC: 32 µg/mL
Pseudomonas aeruginosa; Pseudomonas aeruginosa, strain 1128636, alone, read-out: MIC
  MIC: 32 µg/mL
Pseudomonas aeruginosa; Pseudomonas aeruginosa, strain 1128674, alone, read-out: MIC
  MIC: 16 µg/mL
Pseudomonas aeruginosa; Pseudomonas aeruginosa, strain 1130387, alone, read-out: MIC
  MIC: 16 µg/mL
Pseudomonas aeruginosa; Pseudomonas aeruginosa, strain 1130447, alone, read-out: MIC
  MIC: 16 µg/mL
Pseudomonas aeruginosa; Pseudomonas aeruginosa, strain 1130475, alone, read-out: MIC
  MIC: 16 µg/mL
Pseudomonas aeruginosa; Pseudomonas aeruginosa, strain 1131123, alone, read-out: MIC
  MIC: 8 µg/mL
Pseudomonas aeruginosa; Pseudomonas aeruginosa, strain PAM1020, wild type, read-out: MIC
  MIC: 256 µg/mL
Pseudomonas aeruginosa; [6]
  MIC: > 256 µg/mL
Pseudomonas aeruginosa; [7]
  MIC: 128 µg/mL
Pseudomonas aeruginosa; [8]
  MIC: 256 µg/mL
Pseudomonas aeruginosa; [9]
  MIC: 16 µg/mL
Pseudomonas aeruginosa; Pseudomonas aeruginosa, strain PAM1154 (Fig. 6), read-out: MIC
  MIC: 32 µg/mL
Pseudomonas aeruginosa; [10]
  MIC: 16 µg/mL
Pseudomonas aeruginosa; Pseudomonas aeruginosa, strain PAM1154, read-out: MIC
  MIC: 16 µg/mL
Pseudomonas aeruginosa; inactivation of MexAB-OprM
  fold reduction of MIC: 16 fold
Pseudomonas aeruginosa; mexCD-oprJ-overexpressing strain PAM1033
  fold MIC decrease: 2 fold
PBP2; K. pneumoniae KPM1001 membranes, Bocillin FL step 0°C for xeruborbactam, 30°C for beta-lactams, read-out: Relative binding IC50, PBP2
  IC50: 51 ± 15 µM
PBP1b; E. coli ECM5497 membranes, Bocillin FL step 0°C for xeruborbactam, 30°C for beta-lactams, read-out: Relative binding IC50, PBP1b
  IC50: 56 ± 18 µM
PBP3 [1]; K. pneumoniae KPM1001 membranes; Bocillin FL step 0°C for xeruborbactam, 30°C for beta-lactams; read-out: Relative binding IC50, PBP3
  IC50: 55 ± 8 µM
PBP3 [2]; A. baumannii ACM1320 membranes; Bocillin FL step 0°C for xeruborbactam, 30°C for beta-lactams; read-out: Relative binding IC50, PBP3
  IC50: 135 ± 40 µM
PBP1a [3]; K. pneumoniae KPM1001 membranes; Bocillin FL step 0°C for xeruborbactam, 30°C for beta-lactams; read-out: Relative binding IC50, PBP1a
  IC50: 41 ± 6 µM
PBP1a [4]; E. coli ECM5497 membranes, Bocillin FL step 0°C for xeruborbactam, 30°C for beta-lactams, read-out: Relative binding IC50, PBP1a
  IC50: 47 ± 13 µM
PBP1a [5]; A. baumannii ACM1320 membranes; Bocillin FL step 0°C for xeruborbactam, 30°C for beta-lactams; read-out: Relative binding IC50, PBP1a
  IC50: 1.4 ± 0.5 µM
